Target: T1, human ACC2 (Homo sapiens, UniProt O00763)
T1 construct: made in house; host or cells: insect cells (baculoviral expression system)
Test: ACC2 assay, spectrophotometric 384 well assay (NADH-linked, coupled lactate dehydrogenase/pyruvate kinase)
Assay type: biochemical
Settings: ACC2 assay, hACC2 construct lacking 128 N-terminal amino acids, 25° C., 340 nm; read-out: IC50
In short: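 ADP output tracked via pyruvate kinase/lactate dehydrogenase NADH oxidation, slope at 340 nm over 15 min, 25° C, with 500 μM ATP and 200 μM each acetyl-CoA and NADH. Enzyme: insect-cell-expressed human ACC2, N-terminal 128 residues deleted; pH 7.5 Tris with citrate, KHCO3. IC50 from four-parameter regression versus vehicle and no-acetyl-CoA controls.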

T1 sequence (O00763 129-2458 limits assumed): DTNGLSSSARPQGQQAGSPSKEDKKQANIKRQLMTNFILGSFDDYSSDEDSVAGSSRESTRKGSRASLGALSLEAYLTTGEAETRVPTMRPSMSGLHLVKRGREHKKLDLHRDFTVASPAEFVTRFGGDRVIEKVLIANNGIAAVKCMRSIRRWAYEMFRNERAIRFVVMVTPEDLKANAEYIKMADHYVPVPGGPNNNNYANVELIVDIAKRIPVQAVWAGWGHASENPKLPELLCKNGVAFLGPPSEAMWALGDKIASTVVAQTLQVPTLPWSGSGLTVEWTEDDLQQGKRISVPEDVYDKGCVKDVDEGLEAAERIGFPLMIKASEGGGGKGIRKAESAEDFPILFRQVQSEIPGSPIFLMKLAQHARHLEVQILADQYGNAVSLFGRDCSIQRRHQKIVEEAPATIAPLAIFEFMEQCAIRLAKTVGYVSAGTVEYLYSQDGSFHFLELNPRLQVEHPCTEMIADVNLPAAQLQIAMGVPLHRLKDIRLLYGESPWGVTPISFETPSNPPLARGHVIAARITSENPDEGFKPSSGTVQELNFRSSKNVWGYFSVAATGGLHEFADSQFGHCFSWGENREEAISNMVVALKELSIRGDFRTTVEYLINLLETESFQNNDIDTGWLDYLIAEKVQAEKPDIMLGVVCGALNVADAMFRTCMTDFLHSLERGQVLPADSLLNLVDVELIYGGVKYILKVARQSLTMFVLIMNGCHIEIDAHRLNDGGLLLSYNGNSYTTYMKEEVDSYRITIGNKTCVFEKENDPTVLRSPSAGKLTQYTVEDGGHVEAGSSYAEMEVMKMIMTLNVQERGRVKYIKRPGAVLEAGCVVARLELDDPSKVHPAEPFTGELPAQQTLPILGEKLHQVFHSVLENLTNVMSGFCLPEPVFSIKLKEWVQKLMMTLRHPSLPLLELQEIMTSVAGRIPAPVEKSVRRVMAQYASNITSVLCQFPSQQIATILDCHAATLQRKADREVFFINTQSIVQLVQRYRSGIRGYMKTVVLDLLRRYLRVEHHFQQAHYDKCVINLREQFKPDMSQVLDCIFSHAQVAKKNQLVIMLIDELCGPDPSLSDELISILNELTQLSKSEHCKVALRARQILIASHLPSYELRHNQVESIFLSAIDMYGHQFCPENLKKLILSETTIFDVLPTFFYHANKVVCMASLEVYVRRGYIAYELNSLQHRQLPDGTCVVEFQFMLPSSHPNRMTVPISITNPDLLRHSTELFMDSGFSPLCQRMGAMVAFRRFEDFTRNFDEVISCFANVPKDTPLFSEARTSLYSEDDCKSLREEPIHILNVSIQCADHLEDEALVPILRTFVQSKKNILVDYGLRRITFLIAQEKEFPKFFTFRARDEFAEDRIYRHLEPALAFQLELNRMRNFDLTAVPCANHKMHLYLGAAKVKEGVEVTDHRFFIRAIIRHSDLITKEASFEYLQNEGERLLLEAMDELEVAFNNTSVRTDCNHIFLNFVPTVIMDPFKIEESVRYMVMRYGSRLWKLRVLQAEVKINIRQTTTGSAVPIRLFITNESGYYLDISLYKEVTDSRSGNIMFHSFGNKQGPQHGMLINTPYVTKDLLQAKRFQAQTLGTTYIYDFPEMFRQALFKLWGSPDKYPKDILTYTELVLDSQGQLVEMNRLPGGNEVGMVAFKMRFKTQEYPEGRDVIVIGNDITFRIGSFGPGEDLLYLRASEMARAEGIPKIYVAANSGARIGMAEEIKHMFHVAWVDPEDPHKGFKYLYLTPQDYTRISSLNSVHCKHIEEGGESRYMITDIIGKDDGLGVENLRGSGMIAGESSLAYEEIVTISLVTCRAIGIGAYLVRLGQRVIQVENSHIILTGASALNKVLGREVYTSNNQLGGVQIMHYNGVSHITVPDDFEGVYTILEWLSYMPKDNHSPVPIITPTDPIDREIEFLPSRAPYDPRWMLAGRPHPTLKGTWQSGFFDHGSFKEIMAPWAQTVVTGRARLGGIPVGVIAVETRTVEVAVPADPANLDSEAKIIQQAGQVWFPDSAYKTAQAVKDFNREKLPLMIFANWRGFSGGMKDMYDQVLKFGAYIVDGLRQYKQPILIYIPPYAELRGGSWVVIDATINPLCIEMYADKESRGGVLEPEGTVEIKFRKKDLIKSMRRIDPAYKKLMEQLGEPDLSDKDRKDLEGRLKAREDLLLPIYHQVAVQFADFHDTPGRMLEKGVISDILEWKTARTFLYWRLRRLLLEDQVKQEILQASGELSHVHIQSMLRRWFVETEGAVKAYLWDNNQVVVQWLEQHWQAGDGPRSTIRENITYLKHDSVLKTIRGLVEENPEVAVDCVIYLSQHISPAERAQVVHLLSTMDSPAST

Row | IC50 | SMILES
1 | 130 nM | COC(=O)N[C@@H](C)c1ccc(C2CCN(c3ncc4nc(-c5ccccc5)oc4n3)CC2)cc1 [Example 4.48]
2 | 210 nM | CCCOc1cnc(N2CCC(c3ccc([C@H](C)NC(C)=O)cc3)CC2)nc1 [Example 4.49]
3 | 460 nM | CCOc1cnc(N2CCC(c3ccc([C@H](C)NC(C)=O)cc3)CC2)nc1 [Example 4.50]
4 | 310 nM | CC(=O)N[C@@H](C)c1ccc(C2CCN(c3ncc(OC(C)C)cn3)CC2)cc1 [Example 4.51]
5 | 530 nM | CC(=O)N[C@@H](C)c1ccc(C2CCN(c3ncc(OCC4CC4)cn3)CC2)cc1 [Example 4.52]
6 | 160 nM | CC(=O)N[C@@H](C)c1ccc(C2CCN(c3ncc(OCC4CC4(F)F)cn3)CC2)cc1 (stereo partly shown) [Example 4.53]
7 | 1800 nM | CCC(=O)N[C@@H](C)c1ccc(C2CCN(c3ncc(C4CC4)cn3)CC2)cc1 [Example 4.54]
8 | 2700 nM | COC(=O)c1cnc(N2CCC(c3ccc([C@H](C)NC(C)=O)cc3)CC2)s1 [Example 4.101]
9 | 470 nM | CC(=O)N[C@@H](C)c1ccc(C2CCN(c3ncc(C(C)(C)C)s3)CC2)cc1 [Example 4.102]
10 | 60 nM | CCCCOc1ccc(N2CCC(c3ccc([C@H](C)NC(C)=O)cc3)CC2)c(C#N)c1 [Example 4.201]
11 | 150 nM | CCC(C)Oc1ccc(N2CCC(c3ccc([C@H](C)NC(C)=O)cc3)CC2)c(C#N)c1 (stereo partly shown) [Example 4.202]
12 | 390 nM | C[C@H](NC(=O)C1CC1)c1ccc(C2CCN(c3ncc4nc(-c5ccsc5)oc4n3)CC2)cc1 [Example 4.301]
13 | 200 nM | C[C@H](NC(=O)N(C)C)c1ccc(C2CCN(c3ncc4nc(-c5ccsc5)oc4n3)CC2)cc1 [Example 4.302]
14 | 15600 nM | C[C@H](NC(=O)C1CC1)c1ccc(C2CCN(c3ncc(C4CC4)cn3)CC2)cc1 [Example 4.303]
15 | 240 nM | C[C@H](NC(=O)N(C)C)c1ccc(C2CCN(c3ncc(C4CC4)cn3)CC2)cc1 [Example 4.304]
16 | 1400 nM | CCCOc1cnc(N2CCC(c3ccc([C@H](C)NC(=O)C4CC4)cc3)CC2)nc1 [Example 4.305]
17 | 120 nM | CCCOc1cnc(N2CCC(c3ccc([C@H](C)NC(=O)N(C)C)cc3)CC2)nc1 [Example 4.306]
18 | 200 nM | CCOc1ccc(N2CCC(c3ccc([C@H](C)NC(C)=O)cc3)CC2)nc1 [Example 5.1, (S)—N-{1-[4-(5′-Ethoxy-3,4,5,6-tetrahydro-2H-[1,2′]bipyridinyl-4-yl)-phenyl]-ethyl}-acetamide]
19 | 330 nM | COc1ccc(N2CCC(c3ccc([C@H](C)NC(C)=O)cc3)CC2)nc1 [Example 5.2]
20 | 130 nM | CCCOc1ccc(N2CCC(c3ccc([C@H](C)NC(C)=O)cc3)CC2)nc1 [Example 5.3]
21 | 90 nM | CC(=O)N[C@@H](C)c1ccc(C2CCN(c3ccc(OCC(C)C)cn3)CC2)cc1 [Example 5.4]
22 | 20 nM | CC(=O)N[C@@H](C)c1ccc(C2CCN(c3ncc4nc(-c5ccsc5)oc4n3)CC2)cc1 [Example 5.5]
23 | 60 nM | CC(=O)N[C@@H](C)c1ccc(C2CCN(c3ncc4nc(-c5ccc(C)s5)oc4n3)CC2)cc1 [Example 5.6]
24 | 50 nM | CC(=O)N[C@@H](C)c1ccc(C2CCN(c3ncc4nc(-c5cccs5)oc4n3)CC2)cc1 [Example 5.7]
25 | 19200 nM | CC(=O)N[C@@H](C)c1ccc(C2CCN(c3ccc(C4(S(C)(=O)=O)CC4)cn3)CC2)cc1 [Example 5.8]

Row | IC50 | SMILES
26 | 25400 nM | CNC(=O)c1csc(N2CCC(c3ccc([C@H](C)NC(C)=O)cc3)CC2)n1 [Example 5.9]
27 | 100 nM | CC(=O)N[C@@H](C)c1ccc(C2CCN(c3ncc4nc(-c5ccncc5)oc4n3)CC2)cc1 [Example 5.10]
28 | 150 nM | CC(=O)N[C@@H](C)c1ccc(C2CCN(c3nccc(C(F)(F)F)c3F)CC2)cc1 [Example 5.11]
29 | 220 nM | CC(=O)N[C@@H](C)c1ccc(C2CCN(c3ccc(I)cn3)CC2)cc1 [Example 5.12]
30 | 3000 nM | CC(=O)N[C@@H](C)c1ccc(C2CCN(c3cc(Cl)ccn3)CC2)cc1 [Example 5.13]
31 | 4900 nM | CCOC(=O)c1cc(C#N)c(N2CCC(c3ccc([C@H](C)NC(C)=O)cc3)CC2)nc1C(F)(F)F [Example 5.15]
32 | 260 nM | CC(=O)N[C@@H](C)c1ccc(C2CCN(c3ncc(C(F)(F)F)cc3Cl)CC2)cc1 [Example 5.16]
33 | 1200 nM | CC(=O)N[C@@H](C)c1ccc(C2CCN(c3cc(I)ccn3)CC2)cc1 [Example 5.17]
34 | 1000 nM | CC(=O)N[C@@H](C)c1ccc(C2CCN(c3cccc(C#N)n3)CC2)cc1 [Example 5.19]
35 | 1200 nM | CC(=O)N[C@@H](C)c1ccc(C2CCN(c3nc(-c4ccccc4)cs3)CC2)cc1 [Example 5.20]
36 | 860 nM | CC(=O)N[C@@H](C)c1ccc(C2CCN(c3ccc(C(=O)C4CC4)cn3)CC2)cc1 [Example 5.21]
37 | 2300 nM | CC(=O)N[C@@H](C)c1ccc(C2CCN(c3nc(C)cs3)CC2)cc1 [Example 5.22]
38 | 420 nM | CC(=O)N[C@@H](C)c1ccc(C2CCN(c3ccc(Br)c(C)n3)CC2)cc1 [Example 5.23]
39 | 990 nM | COc1ccc2nc(N3CCC(c4ccc([C@H](C)NC(C)=O)cc4)CC3)ccc2c1 [Example 5.24]
40 | 2400 nM | CC(=O)N[C@@H](C)c1ccc(C2CCN(c3ccc(-c4nc5ccccc5[nH]4)cn3)CC2)cc1 [Example 5.25]
41 | 9000 nM | CC(=O)N[C@@H](C)c1ccc(C2CCN(c3ccnc(C)n3)CC2)cc1 [Example 5.26]
42 | 5200 nM | CC(=O)N[C@@H](C)c1ccc(C2CCN(c3ccc4c(n3)C(=O)CC4)CC2)cc1 [Example 5.27]
43 | 8000 nM | CC(=O)N[C@@H](C)c1ccc(C2CCN(c3cc(C#N)ccn3)CC2)cc1 [Example 5.28]
44 | 170 nM | CCOC(=O)c1ccnc(N2CCC(c3ccc([C@H](C)NC(C)=O)cc3)CC2)c1C [Example 5.29]
45 | 180 nM | CC(=O)N[C@@H](C)c1ccc(C2CCN(c3ccc(C(=O)Nc4ccccc4)cn3)CC2)cc1 [Example 5.30]
46 | 1000 nM | CC(=O)N[C@@H](C)c1ccc(C2CCN(c3ccc4ccc(Cl)cc4n3)CC2)cc1 [Example 5.31]
47 | 3800 nM | CC(=O)N[C@@H](C)c1ccc(C2CCN(c3ccc4c(Cl)cccc4n3)CC2)cc1 [Example 5.32]
48 | 330 nM | CC(=O)N[C@@H](C)c1ccc(C2CCN(c3nnc(-c4ccccc4)s3)CC2)cc1 [Example 5.33]
49 | 3200 nM | CC(=O)N[C@@H](C)c1ccc(C2CCN(c3ccc(C(C)(F)F)cn3)CC2)cc1 [Example 5.34]
50 | 2800 nM | CC(=O)N[C@@H](C)c1ccc(C2CCN(c3ccc(C4(C#N)CC4)cn3)CC2)cc1 [Example 5.35]

Row | IC50 | SMILES
51 | 3100 nM | C[C@H](NC(=O)C1CC1)c1ccc(C2CCN(c3nc(Cl)ncc3F)CC2)cc1 [Example 5.36]
52 | 2900 nM | C[C@H](NC(=O)C1CC1)c1ccc(C2CCN(c3ncnc(Cl)c3F)CC2)cc1 [Example 5.37]
53 | 570 nM | CC(=O)N[C@@H](C)c1ccc(C2CCN(c3ncc(Br)cc3F)CC2)cc1 [Example 5.38]
54 | 340 nM | CC(=O)N[C@@H](C)c1ccc(C2CCN(c3nccc(I)c3C)CC2)cc1 [Example 5.39]
55 | 410 nM | CC(=O)N[C@@H](C)c1ccc(C2CCN(c3ccnc(Cl)c3C)CC2)cc1 [Example 5.40]
56 | 5000 nM | CC(=O)N[C@@H](C)c1ccc(C2CCN(c3cc(C)ccn3)CC2)cc1 [Example 5.41]
57 | 210 nM | CC(=O)N[C@@H](C)c1ccc(C2CCN(c3cccc(C)n3)CC2)cc1 [Example 5.42]
58 | 630 nM | COc1cccc(N2CCC(c3ccc([C@H](C)NC(C)=O)cc3)CC2)n1 [Example 5.43]
59 | 70 nM | CC(=O)N[C@@H](C)c1ccc(C2CCN(c3ccc(-c4ccc(Cl)cc4)cn3)CC2)cc1 [Example 5.44]
60 | 1600 nM | CC(=O)N[C@@H](C)c1ccc(C2CCN(c3ccc(C)cn3)CC2)cc1 [Example 5.46]
61 | 800 nM | CCOc1ccnc(N2CCC(c3ccc([C@H](C)NC(C)=O)cc3)CC2)c1 [Example 5.47]
62 | 420 nM | CCCOc1ccnc(N2CCC(c3ccc([C@H](C)NC(C)=O)cc3)CC2)c1 [Example 5.48]
63 | 2600 nM | CC(=O)N[C@@H](C)c1ccc(C2CCN(c3ncccc3C)CC2)cc1 [Example 5.49]
64 | 90 nM | CC(=O)N[C@@H](C)c1ccc(C2CCN(c3ncc(-c4ccccc4)c(Cl)n3)CC2)cc1 [Example 5.50, (S)—N-(1-{4-[1-(4-chloro-5-phenyl-pyrimidin-2-yl)-piperidin-4-yl]-phenyl}-ethyl)-acetamide]
65 | 4800 nM | CC(=O)N[C@@H](C)c1ccc(C2CCN(c3cc(F)ncc3C)CC2)cc1 [Example 5.51]
66 | 7700 nM | COC(=O)c1cnc(N2CCC(c3ccc([C@H](C)NC(C)=O)cc3)CC2)cn1 [Example 5.53]
67 | 9300 nM | COC(=O)c1cncc(N2CCC(c3ccc([C@H](C)NC(C)=O)cc3)CC2)n1 [Example 5.54]
68 | 7600 nM | CCOC(=O)c1cnnc(N2CCC(c3ccc([C@H](C)NC(C)=O)cc3)CC2)c1 [Example 5.55]
69 | 1200 nM | CC(=O)N[C@@H](C)c1ccc(C2CCN(c3nc4ccc(C)cc4s3)CC2)cc1 [Example 5.56]
70 | 230 nM | CCCOc1ccc(N2CCC(c3ccc([C@H](C)NC(=O)C4CC4)cc3)CC2)nc1 [Example 5.57]
71 | 860 nM | CCOc1ccc(N2CCC(c3ccc([C@H](C)NC(=O)C4CC4)cc3)CC2)nc1 [Example 5.58]
72 | 7500 nM | CC(=O)N[C@@H](C)c1ccc(C2CCN(c3cc(Cl)nc(N4CCCC4)n3)CC2)cc1 [Example 5.200, (S)—N-(1-{4-[1-(6-Chloro-2-pyrrolidin-1-yl-pyrimidin-4-yl)-piperidin-4-yl]-phenyl}-ethyl)-acetamide]
73 | 790 nM | CC(=O)N[C@@H](C)c1ccc(C2CCN(c3nc(N4CCCCC4)ncc3C(F)(F)F)CC2)cc1 [Example 5.201]

— patent US9006450B2 (Boehringer Ingelheim International GmbH, priority 2010, dated 2015)
